Source: ChEMBL document CHEMBL4840358, “Discovery of Modified Amidate (ProTide) Prodrugs of Tenofovir with Enhanced Antiviral Properties” (J Med Chem, 2021)
Values after ≈ are worked out from the molar mass of the structure shown.

Tests used:
[1] = test system: Human immunodeficiency virus 1; experiment: Antiviral activity against HIV-1 infected in MT4 cells assessed as reduction in virus-induced cytopathic effect preincubated for 1 hr followed by viral infection and measured after 5 days by XTT assay; type: functional, organism-based; conditions: Human immunodeficiency virus 1, MT4
[2] = Cytotoxicity against in human MT4 cells after 5 days by XTT assay; type: cell-based; conditions: time 5 day
[3] = target: T1, Lysosomal protective protein (Homo sapiens) (UniProt P10619); experiment: Substrate activity at cathepsin A (unknown origin) at 30 uM after 30 mins
T1 sequence (whole entry): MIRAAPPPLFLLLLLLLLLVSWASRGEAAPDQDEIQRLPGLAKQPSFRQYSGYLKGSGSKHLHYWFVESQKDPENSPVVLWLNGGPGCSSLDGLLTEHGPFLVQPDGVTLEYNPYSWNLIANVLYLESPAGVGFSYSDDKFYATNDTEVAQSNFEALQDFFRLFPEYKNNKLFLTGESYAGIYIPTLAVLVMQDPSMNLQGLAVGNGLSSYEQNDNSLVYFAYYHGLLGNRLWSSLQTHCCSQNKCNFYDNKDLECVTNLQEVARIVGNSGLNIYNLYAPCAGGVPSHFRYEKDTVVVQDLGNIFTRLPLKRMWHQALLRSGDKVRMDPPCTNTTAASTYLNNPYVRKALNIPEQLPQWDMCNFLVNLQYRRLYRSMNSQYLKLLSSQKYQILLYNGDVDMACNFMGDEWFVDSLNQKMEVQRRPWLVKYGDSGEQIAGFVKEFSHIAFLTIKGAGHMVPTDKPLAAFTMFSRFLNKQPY

[4] = Drug uptake in human CCRF-CEM cells assessed as intracellular intact prodrug level at 50 uM after 45 mins by ECHO-MS analysis; type: ADME, cell-based; conditions: 0.75 h
[5] = Drug uptake in human CCRF-CEM cells assessed as released tenofovir level at 50 uM after 45 mins by ECHO-MS analysis; type: ADME, cell-based; conditions: 0.75 h
[6] = Drug metabolism assessed as M1 metabolite formation; type: ADME
[7] = Drug metabolism assessed as M5 metabolite formation; type: ADME
[8] = Drug metabolism assessed as M9 metabolite formation; type: ADME
[9] = Drug metabolism assessed as M11 metabolite formation; type: ADME
[10] = Drug metabolism assessed as M12 metabolite formation; type: ADME
[11] = Solubility of compound in water at 25 uM after 24 hrs by HPLC analysis; type: physicochemical
[12] = Chemical stability of compound in pH 10 NaOH-glycin buffer at 25 uM after 24 hrs by HPLC analysis; type: physicochemical; conditions: pH 10, 24 h
[13] = Chemical stability of compound in pH 1.5 NaCl-HCl buffer at 25 uM after 24 hrs by HPLC analysis; type: physicochemical; conditions: pH 1.5, 24 h
[14] = Chemical stability of compound in pH 4.5 citrate buffer at 25 uM after 24 hrs by HPLC analysis; type: physicochemical; conditions: pH 4.5, 24 h
[15] = Stability of compound in pooled human plasma assessed as half life at 5 uM measured for 120 to 240 mins by ECHO-MS analysis; type: ADME, cell-free; conditions: time 120-240 min
[16] = Stability of compound in pooled human plasma assessed as compound remaining at 5 uM measured for 120 to 240 mins by ECHO-MS analysis; type: ADME, cell-free; conditions: time 120-240 min, read-out: Stability
[17] = Stability of compound in pooled human hepatic microsomes assessed as compound remaining at 5 uM measured upto 30 mins in presence of NADPH by ECHO-MS analysis; type: ADME, Microsome; conditions: pooled liver microsomes, read-out: Stability
[18] = Drug metabolism in human liver microsomes assessed as formation of metabolite 1; type: ADME, Microsome
[19] = Selectivity index, ratio of CC50 for human MT-4 cells to EC50 for HIV-1 infected in MT-4 cells; type: toxicity, cell-based; conditions: read-out: Ratio CC50/EC50
Hepatitis B virus = experiment: Antiviral activity against HBV infected in human HepG2-hNTCP cells assessed as reduction in HBV DNA incubated for day 1 followed by compound washout and fresh compound addition on following day and day 3, 6 and 10 measured on day 14 post infection by qPCR analysis; type: functional, organism-based
[20] = Cytotoxicity against human HepG2-hNTCP cells incubated for 3 days by XTT assay; type: cell-based; conditions: time 3 day
[21] = test system: Human immunodeficiency virus 1; experiment: Antiviral activity against HIV-1; type: functional, organism-based

| Structure (SMILES) | EC50 [1] | CC50 at 120 h [2] | Activity [3] | Drug uptake [4] | Drug uptake [5] | solubility at 24 h, 25 µM [11] | half-life at 5 µM [15] | remaining at 5 µM [16] | remaining at 0.5 h, 5 µM [17] | selectivity ratio [19] | further results |
| --- | --- | --- | --- | --- | --- | --- | --- | --- | --- | --- | --- |
| CC(C)OC(=O)[C@H](C)N[P@@](=O)(CO[C@H](C)Cn1cnc2c(N)ncnc21)Oc1ccc(C[C@H](NCCCc2ccccc2)C(=O)CC2CCCC2)cc1 | 9.6 nM | 7.3 µM | 10.2 pmol/min/mg | 266.22 pmol | 50.12 pmol |  |  |  |  |  | Drug metabolism [6]: Metabolite_Detected; Drug metabolism [7]: Metabolite_Detected; Drug metabolism [8]: Metabolite_Detected; Drug metabolism [9]: Metabolite_Detected; Drug metabolism [10]: Metabolite_Detected |
| CC(C)OC(=O)[C@H](C)N[P@](=O)(CO[C@H](C)Cn1cnc2c(N)ncnc21)Oc1ccc(C[C@H](NC(=O)OCc2ccccc2)C(=O)OC2CCCC2)cc1 | 0.07 nM | 10 µM |  | 0.19 pmol | 73.7 pmol | 53.5 µM (≈ 41 µg/mL) | 578 min | 75% | 0.01% | 143000 | Stability [12]: Unstable; Stability [13]: Unstable; Stability [14]: Stable; Drug metabolism [18]: Metabolite_Detected |
| CC(C)OC(=O)[C@H](C)N[P@](=O)(CO[C@H](C)Cn1cnc2c(N)ncnc21)Oc1ccccc1.CC(C)OC(=O)[C@H](C)N[P@](=O)(CO[C@H](C)Cn1cnc2c(N)ncnc21)Oc1ccccc1.O=C(O)/C=C/C(=O)O [TENOFOVIR ALAFENAMIDE FUMARATE] | 6.4 nM | 35 µM | 25.8 pmol/min/mg | 0.3 pmol | 21.19 pmol | > 1000 µM | 207 min | 44% | 70% | 5470 | EC50 (Hepatitis B virus): 5.3 nM; CC50 at 72 h [20]: > 50 µM; EC50 [21]: 5 nM |
